Test results taken from ChEMBL document CHEMBL3431459, “Roche carnitine palmitoyltransferase modulator screening data (supplementary data associated with the publication CHEMBL2216752)”.
In brackets after ≈: the same amount, converted by molar mass.

Experiments:
[1] = SUPPLEMENTARY: Lyophilisation Solubility Assay (LYSA); type: physicochemical; details: read-out: Kinetic_solubility
[2] = target: T1, Carnitine O-palmitoyltransferase 1, muscle isoform (Homo sapiens, UniProt Q92523); test: SUPPLEMENTARY: Inhibition of Carnitine palmitoyltransferase 1, muscle isoform; parameters: species or system Muscle tissue
T1 sequence (Q92523 whole entry): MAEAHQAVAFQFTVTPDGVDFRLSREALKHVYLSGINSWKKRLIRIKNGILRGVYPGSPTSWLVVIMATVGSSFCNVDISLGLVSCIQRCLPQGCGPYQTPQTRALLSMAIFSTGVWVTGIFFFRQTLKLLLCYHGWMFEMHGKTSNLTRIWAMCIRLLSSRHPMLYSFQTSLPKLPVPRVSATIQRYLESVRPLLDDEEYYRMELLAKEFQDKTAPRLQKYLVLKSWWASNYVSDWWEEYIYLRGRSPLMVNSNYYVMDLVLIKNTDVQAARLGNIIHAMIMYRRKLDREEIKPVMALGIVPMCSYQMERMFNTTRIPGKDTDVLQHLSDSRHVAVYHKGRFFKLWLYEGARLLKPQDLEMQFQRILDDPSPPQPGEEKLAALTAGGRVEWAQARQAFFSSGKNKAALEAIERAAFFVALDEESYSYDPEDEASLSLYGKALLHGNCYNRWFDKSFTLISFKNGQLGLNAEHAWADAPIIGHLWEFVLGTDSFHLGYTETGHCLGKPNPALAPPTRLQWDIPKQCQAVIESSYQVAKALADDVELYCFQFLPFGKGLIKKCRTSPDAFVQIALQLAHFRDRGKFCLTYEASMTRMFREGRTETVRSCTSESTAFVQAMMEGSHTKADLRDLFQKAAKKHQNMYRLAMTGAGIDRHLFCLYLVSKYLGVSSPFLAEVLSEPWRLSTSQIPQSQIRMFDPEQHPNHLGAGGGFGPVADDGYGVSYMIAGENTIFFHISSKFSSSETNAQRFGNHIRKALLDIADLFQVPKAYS

[3] = target: T2, Carnitine O-palmitoyltransferase 2, mitochondrial (Homo sapiens, UniProt P23786); test: (§1) SUPPLEMENTARY: Inhibition of Carnitine palmitoyltransferase 2
T2 sequence (P23786 whole entry): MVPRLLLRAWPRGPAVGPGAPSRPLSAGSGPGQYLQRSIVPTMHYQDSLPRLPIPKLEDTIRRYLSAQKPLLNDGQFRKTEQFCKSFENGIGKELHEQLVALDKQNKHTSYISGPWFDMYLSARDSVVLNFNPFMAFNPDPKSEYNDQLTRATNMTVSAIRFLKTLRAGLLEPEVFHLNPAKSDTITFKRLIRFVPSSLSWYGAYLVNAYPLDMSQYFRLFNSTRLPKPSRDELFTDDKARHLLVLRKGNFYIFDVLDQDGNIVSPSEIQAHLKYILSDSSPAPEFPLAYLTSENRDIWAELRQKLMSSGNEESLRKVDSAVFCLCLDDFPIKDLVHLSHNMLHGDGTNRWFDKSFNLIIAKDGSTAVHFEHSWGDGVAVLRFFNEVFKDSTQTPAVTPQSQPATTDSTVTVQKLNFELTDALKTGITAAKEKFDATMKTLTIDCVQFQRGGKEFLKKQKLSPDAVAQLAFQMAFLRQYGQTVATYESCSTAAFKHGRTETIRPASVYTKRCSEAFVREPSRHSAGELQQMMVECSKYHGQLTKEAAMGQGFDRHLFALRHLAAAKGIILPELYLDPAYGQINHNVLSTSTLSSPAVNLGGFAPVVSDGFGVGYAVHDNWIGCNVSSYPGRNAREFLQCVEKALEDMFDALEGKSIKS

[4] = target: T3, Carnitine O-palmitoyltransferase 2, mitochondrial (Rattus norvegicus, UniProt P18886); test: as §1
T3 sequence (P18886 whole entry): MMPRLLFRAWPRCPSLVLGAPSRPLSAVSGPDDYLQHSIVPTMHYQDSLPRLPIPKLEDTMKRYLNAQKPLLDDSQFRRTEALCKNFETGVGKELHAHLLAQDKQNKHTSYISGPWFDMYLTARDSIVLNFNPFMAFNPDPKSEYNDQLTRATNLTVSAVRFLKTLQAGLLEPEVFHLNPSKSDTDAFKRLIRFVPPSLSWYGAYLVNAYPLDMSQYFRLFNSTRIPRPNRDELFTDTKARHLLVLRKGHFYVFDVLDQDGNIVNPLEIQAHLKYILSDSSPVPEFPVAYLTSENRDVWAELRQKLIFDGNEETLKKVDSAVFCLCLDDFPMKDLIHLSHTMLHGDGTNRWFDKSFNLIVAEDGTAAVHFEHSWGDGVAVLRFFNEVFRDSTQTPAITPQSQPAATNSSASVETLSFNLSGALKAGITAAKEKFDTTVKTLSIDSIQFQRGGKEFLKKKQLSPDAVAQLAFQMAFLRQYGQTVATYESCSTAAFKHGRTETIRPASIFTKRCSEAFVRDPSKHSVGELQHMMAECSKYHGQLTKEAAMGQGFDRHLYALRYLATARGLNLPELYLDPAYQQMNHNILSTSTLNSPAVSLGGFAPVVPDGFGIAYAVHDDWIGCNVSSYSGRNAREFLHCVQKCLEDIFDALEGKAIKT

[5] = target: T4, Carnitine O-palmitoyltransferase 1, liver isoform (Rattus norvegicus, UniProt P32198); test: (§2) SUPPLEMENTARY: Inhibition of Carnitine palmitoyltransferase 1, liver isoform
T4 sequence (P32198 whole entry): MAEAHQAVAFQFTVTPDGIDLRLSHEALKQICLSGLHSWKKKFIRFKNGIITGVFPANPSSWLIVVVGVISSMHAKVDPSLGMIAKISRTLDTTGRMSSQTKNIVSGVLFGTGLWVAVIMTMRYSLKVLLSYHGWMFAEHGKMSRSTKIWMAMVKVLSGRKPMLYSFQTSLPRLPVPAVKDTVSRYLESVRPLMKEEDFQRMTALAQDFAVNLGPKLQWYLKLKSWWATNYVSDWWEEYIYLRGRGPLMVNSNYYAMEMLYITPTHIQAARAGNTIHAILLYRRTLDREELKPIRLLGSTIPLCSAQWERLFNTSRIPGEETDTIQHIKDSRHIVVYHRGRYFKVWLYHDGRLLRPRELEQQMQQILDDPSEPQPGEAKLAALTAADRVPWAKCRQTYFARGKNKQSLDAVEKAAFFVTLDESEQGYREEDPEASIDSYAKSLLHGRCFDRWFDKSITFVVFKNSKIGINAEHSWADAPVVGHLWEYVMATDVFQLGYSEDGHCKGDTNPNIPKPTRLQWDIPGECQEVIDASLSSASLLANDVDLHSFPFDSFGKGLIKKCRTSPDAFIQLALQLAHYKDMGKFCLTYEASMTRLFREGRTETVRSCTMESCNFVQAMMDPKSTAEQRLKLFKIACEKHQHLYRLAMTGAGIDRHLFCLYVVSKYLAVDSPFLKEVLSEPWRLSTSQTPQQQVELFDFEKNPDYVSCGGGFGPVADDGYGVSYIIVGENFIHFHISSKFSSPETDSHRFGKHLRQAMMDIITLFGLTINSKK

[6] = target: T5, Carnitine O-palmitoyltransferase 1, liver isoform (Homo sapiens, UniProt P50416); test: as §2
T5 sequence (P50416 whole entry): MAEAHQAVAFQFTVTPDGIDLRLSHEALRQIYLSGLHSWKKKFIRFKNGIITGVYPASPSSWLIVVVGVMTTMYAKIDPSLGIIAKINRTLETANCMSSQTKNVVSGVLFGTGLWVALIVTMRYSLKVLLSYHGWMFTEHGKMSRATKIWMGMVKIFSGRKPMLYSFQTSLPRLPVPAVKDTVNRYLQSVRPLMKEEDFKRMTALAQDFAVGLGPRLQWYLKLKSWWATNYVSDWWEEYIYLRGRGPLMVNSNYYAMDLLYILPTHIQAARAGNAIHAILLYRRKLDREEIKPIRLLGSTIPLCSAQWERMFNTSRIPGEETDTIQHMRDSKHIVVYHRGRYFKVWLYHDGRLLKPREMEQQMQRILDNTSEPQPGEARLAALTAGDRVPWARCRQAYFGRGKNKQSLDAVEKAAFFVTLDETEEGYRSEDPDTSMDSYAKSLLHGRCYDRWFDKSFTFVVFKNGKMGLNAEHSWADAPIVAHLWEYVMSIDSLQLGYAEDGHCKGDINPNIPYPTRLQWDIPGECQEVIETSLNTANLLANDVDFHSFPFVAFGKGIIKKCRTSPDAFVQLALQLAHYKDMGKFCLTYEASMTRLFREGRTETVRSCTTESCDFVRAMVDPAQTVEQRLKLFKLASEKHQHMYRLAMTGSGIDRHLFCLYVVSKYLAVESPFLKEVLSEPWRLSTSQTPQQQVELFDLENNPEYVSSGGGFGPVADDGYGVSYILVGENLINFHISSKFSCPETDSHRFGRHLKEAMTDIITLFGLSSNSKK

[7] = SUPPLEMENTARY: PAMPA permeability assay; type: physicochemical; details: read-out: Permeability
[8] = SUPPLEMENTARY: Lipophilicity (log D) Determination by high-throughput shake-flask; type: physicochemical; details: octanol/water

SMILES | solubility kinetic [1] | IC50 [2] | IC50 [3] | IC50 [4] | IC50 [5] | IC50 [6] | Papp [7] | logD [8]
O=C(COc1ccccc1)N1CCCC[C@@H]1c1noc(-c2cnc3[nH]cnc3c2)n1 | 109 µg/mL (≈ 270 µM) | 35500 nM | 24300 nM | 33600 nM | 238 nM | 90.2 nM | 3.53 ×10⁻⁶ cm/s | 2.36
O=C1NCc2ccc(-c3n[nH]c([C@H]4CCCCN4C(=O)COc4ccccc4)n3)cc2N1 | 77 µg/mL (≈ 178 µM) | > 100000 nM | 40200 nM | 44100 nM | 546 nM | 192 nM | 2.18 ×10⁻⁶ cm/s | 2.18
O=C(COc1ccccc1)N1CCCC[C@@H]1c1noc(C2CCCC2)n1 | 20 µg/mL (≈ 56.3 µM) | > 100000 nM | > 100000 nM | > 100000 nM | 106 nM | 181 nM | 4.38 ×10⁻⁶ cm/s | 3.08
COc1ccc(C)cc1S(=O)(=O)N1CCCc2ccc(C(=O)Nc3ccc(C(=O)O)c(F)c3)cc21 | 60 µg/mL (≈ 120 µM) | 5180 nM | 4430 nM | 8130 nM | 90.9 nM | 152 nM | 1.62 ×10⁻⁶ cm/s | 0.88
COc1ccc(Cl)cc1S(=O)(=O)N1CCOc2c(F)cc(C(=O)Nc3ccc(C(=O)O)c(F)c3)cc21 | 7 µg/mL (≈ 13 µM) | 4560 nM | 1530 nM | 6510 nM | 56.7 nM | 57.5 nM | 1.66 ×10⁻⁶ cm/s | 0.52
COc1ccc(Cl)cc1S(=O)(=O)N1COc2ccc(C(=O)Nc3ccc(C(=O)O)c(Cl)c3)cc21 | > 697 µg/mL | 2280 nM | 9730 nM | 16000 nM | 182 nM | 208 nM | 1.66 ×10⁻⁶ cm/s | 0.09
O=C(COc1ccccc1)N1CCCC[C@@H]1c1nc(-c2ccc(F)c(F)c2)n[nH]1 | 77 µg/mL (≈ 193 µM) | > 100000 nM | > 100000 nM | > 100000 nM | 598 nM | 239 nM | 1.72 ×10⁻⁶ cm/s | 2.77
O=C(O)c1cccc(-c2noc([C@H]3CCCCN3C(=O)COc3ccccc3)n2)c1 | > 461 µg/mL | 93600 nM | > 100000 nM | > 100000 nM | 1490 nM | 93.5 nM | 1.92 ×10⁻⁶ cm/s | 0.99
O=C(COc1ccccc1)N1CCCC[C@@H]1c1noc(-c2ccc3ncsc3c2)n1 | 2 µg/mL (≈ 4.76 µM) | > 100000 nM | 18000 nM | > 100000 nM | 147 nM | 177 nM | 2.4 ×10⁻⁶ cm/s | 3.31
Cc1cc(C)cc(S(=O)(=O)N2CCc3ccc(C(=O)Nc4ccc(CC(=O)O)cc4)cc32)c1 | 5 µg/mL (≈ 10.8 µM) | 6790 nM | > 100000 nM | > 100000 nM | 133 nM | 187 nM | 4.05 ×10⁻⁶ cm/s | 2.42
COc1ccc(Cl)cc1Cc1cn(C)c2ccc(C(=O)Nc3ccc(CC(=O)O)cc3)cc12 | 44 µg/mL (≈ 95 µM) | 2470 nM | > 100000 nM | > 100000 nM | 119 nM | 130 nM | 0.86 ×10⁻⁶ cm/s | 2.7
Cc1cc(-c2nc([C@H]3CCCCN3C(=O)COc3ccccc3)no2)on1 | 41 µg/mL (≈ 111 µM) | > 100000 nM | > 100000 nM | > 100000 nM | 144 nM | 116 nM | 9.63 ×10⁻⁶ cm/s | 2.6
COc1ccc(Cl)cc1S(=O)(=O)N1COc2ccc(C(=O)Nc3nc(CC(=O)O)cs3)cc21 | 519 µg/mL (≈ 1020 µM) | 661 nM | > 100000 nM | > 100000 nM | 18.4 nM | 53.3 nM | 2.93 ×10⁻⁶ cm/s | 0.13
O=C1COc2cc(C#C[C@H]3CCCCN3C(=O)COc3ccccc3)ccc2N1 | 2 µg/mL (≈ 5.12 µM) | > 100000 nM | > 100000 nM | > 100000 nM | 205 nM | 154 nM | 1.09 ×10⁻⁶ cm/s | 3.51
CCN(c1cc(C(=O)Nc2ncc(CC(=O)O)s2)cc2c1OCO2)S(=O)(=O)c1cc(Cl)ccc1OC | 144 µg/mL (≈ 260 µM) | 620 nM | > 100000 nM | > 100000 nM | 98.9 nM | 88.4 nM | 3.22 ×10⁻⁶ cm/s | 2.74
